Among the data in ChEMBL document CHEMBL5120822, “Inhibition of the P2X7/NLRP3 Inflammasome Signaling Pathway by Deacetylgedunin from Toona sinensis” (J Nat Prod, 2022) are Activity, inhibition and IC50 values, retold here.

Active and inactive are the calls of the source. No cut-off for these calls is given here.

As a reminder, the IC50 is the midpoint of a concentration-inhibition curve.

The test system of data set [1] is THP-1. As to the kind of experiment: Antiinflammatory activity against PMA-differentiated and LPS/MSU stimulated human THP-1 cells assessed as increase in cell viability at 5 to 20 uM incubated for 1 hrs followed by LPS stimulation for 12 hrs and MSU addition for 6 hrs by CCK8 assay. The format is functional, cell-based. To be noted: dose 5-20 µM, time 19.0 hrs. For orientation: Formazan colour is commonly taken as a measure of viable cells.

Data set [2] concerns the target NACHT, LRR and PYD domains-containing protein 3 (Homo sapiens) (UniProt Q96P20). As to the kind of experiment: Inhibition of NLRP3 inflammasome activation in PMA-differentiated and LPS/MSU-stimulated human THP-1 cells assessed as decrease in pro-caspase-1 expression at 20 uM incubated for 1 hrs followed by LPS stimulation for 12 hrs and MSU addition for 6 hrs by western blot analysis. Conditions: time 19.0 hrs. The format is cell-based. (A western blot detects proteins with antibodies after separation by electrophoresis.)

A further data set concerns J774.A1. In words: Antiinflammatory activity against LPS/ATP-induced […] cells assessed as inhibition of ROS release at 20 uM incubated for 1 hrs followed by LPS stimulation for 12 hrs and ATP addition for 0.5 hrs by DCFH-DA staining based flow cytometry analysis. To be noted: Mus musculus, time 13.5 hrs. The format is functional, cell-based.
The target in data set [3] is NACHT, LRR and PYD domains-containing protein 3 (Homo sapiens) (UniProt Q96P20). As to the kind of experiment: Inhibition of NLRP3 inflammasome activation in PMA-differentiated and LPS/ATP-stimulated human THP-1 cells assessed as assessed as increase in potassium ion concentration at 5 to 20 uM incubated for 1 hrs followed by LPS stimulation for 12 hrs and ATP addition for 0.5 hrs by EPG-2 AM staining based flow cytometry. In kind it is cell-based. To be noted: dose 5-20 µM, time 13.5 hrs. On the technique in general: Flow cytometry measures light scatter and fluorescence of single cells or particles in a stream.
Chain of NACHT, LRR and PYD domains-containing protein 3 (Homo sapiens) (Q96P20 whole entry, the tested form may be a part): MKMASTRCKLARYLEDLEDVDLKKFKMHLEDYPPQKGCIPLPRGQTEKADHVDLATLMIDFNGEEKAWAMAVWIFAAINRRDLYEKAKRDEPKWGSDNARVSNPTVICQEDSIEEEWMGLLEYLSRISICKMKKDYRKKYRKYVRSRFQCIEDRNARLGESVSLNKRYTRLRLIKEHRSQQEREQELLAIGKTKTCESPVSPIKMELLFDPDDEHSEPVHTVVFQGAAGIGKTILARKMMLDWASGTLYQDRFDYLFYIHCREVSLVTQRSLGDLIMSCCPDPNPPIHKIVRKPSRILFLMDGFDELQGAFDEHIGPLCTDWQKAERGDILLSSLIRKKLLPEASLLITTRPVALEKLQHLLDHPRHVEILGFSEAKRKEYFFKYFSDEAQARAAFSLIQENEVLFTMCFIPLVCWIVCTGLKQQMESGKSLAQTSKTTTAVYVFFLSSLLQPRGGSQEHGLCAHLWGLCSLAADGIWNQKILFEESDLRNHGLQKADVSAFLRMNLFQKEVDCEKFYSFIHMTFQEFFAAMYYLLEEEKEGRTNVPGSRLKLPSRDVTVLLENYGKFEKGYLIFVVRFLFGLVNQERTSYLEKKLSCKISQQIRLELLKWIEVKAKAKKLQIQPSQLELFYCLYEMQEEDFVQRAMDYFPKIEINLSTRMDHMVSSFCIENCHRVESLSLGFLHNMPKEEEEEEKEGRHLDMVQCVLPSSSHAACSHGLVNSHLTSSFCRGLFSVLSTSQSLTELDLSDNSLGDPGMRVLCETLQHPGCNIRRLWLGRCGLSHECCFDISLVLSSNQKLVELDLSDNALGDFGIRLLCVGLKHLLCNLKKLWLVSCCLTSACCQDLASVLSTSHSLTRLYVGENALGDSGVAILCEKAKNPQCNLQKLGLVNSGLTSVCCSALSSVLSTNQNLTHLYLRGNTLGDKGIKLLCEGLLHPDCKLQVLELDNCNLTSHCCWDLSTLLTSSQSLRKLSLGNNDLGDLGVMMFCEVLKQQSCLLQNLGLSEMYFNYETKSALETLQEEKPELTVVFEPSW

The test system of a further data set is J774.1. In words: Cytotoxicity against mouse J774.1 cells derived macrophage assessed as reduction in cell viability upto 40 uM incubated for 24 hrs by CCK-8 assay. The format is toxicity, cell-based. Conditions: j774.1, 24 h.
Data set [4] deals with NACHT, LRR and PYD domains-containing protein 3 (Homo sapiens) (UniProt Q96P20). As to the kind of experiment: Inhibition of NLRP3 inflammasome activation in PMA-differentiated and LPS/NIG-stimulated human THP-1 cells assessed as decrease in caspase-1 expression at 20 uM incubated for 1 hrs followed by LPS stimulation for 12 hrs and NIG addition for 2 hrs by western blot analysis. Conditions: time 15.0 hrs. The format is cell-based.

The target is the same in data set [5]. In words: Inhibition of NLRP3 inflammasome activation in PMA-differentiated and LPS/MSU-stimulated human THP-1 cells assessed as inhibition of IL-1beta secretion at 20 uM incubated for 1 hrs followed by LPS stimulation for 12 hrs and MSU addition for 6 hrs by ELISA. The format is cell-based. To be noted: time 19.0 hrs.
Data set [6] has the same target. In words: Inhibition of NLRP3 inflammasome activation in PMA-differentiated and LPS/ATP-stimulated human THP-1 cells assessed as decrease in pro-IL-1beta expression at 5 to 20 uM incubated for 1 hrs followed by LPS stimulation for 12 hrs and ATP addition for 0.5 hrs by western blot analysis. In kind it is cell-based. Conditions: dose 5-20 µM, time 13.5 hrs.
The target is the same in data set [7]. As to the kind of experiment: Inhibition of NLRP3 inflammasome activation in PMA-differentiated and LPS/NIG-stimulated human THP-1 cells assessed as decrease in pro-IL-1beta expression at 20 uM incubated for 1 hrs followed by LPS stimulation for 12 hrs and NIG addition for 2 hrs by western blot analysis. In kind it is cell-based. Conditions: time 15.0 hrs.

In data set [8] the target is T1, P2X purinoceptor 7 (Homo sapiens) (UniProt Q99572).
T1 sequence (whole entry): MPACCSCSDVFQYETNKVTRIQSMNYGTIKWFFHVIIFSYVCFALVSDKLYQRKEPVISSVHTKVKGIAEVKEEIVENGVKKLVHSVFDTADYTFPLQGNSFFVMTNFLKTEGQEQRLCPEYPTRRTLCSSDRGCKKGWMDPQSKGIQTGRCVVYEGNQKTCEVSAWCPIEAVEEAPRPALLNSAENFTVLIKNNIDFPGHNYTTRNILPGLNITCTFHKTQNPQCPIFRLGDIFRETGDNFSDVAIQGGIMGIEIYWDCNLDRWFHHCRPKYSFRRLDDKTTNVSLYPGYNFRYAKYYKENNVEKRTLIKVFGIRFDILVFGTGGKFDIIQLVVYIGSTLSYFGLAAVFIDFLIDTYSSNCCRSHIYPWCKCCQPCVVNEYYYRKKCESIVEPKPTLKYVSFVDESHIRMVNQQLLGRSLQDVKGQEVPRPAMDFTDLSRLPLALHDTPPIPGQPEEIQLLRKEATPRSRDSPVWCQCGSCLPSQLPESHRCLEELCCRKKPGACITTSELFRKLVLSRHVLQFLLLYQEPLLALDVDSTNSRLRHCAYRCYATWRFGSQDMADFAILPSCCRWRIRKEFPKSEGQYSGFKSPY
As to the kind of experiment: Inhibition of pronase mediated degradation of P2X7 in human THP-1 cells assessed as increase in P2X7 expression at 20 to 80 uM by Western blot analysis. In kind it is cell-based. To be noted: dose 20-80 µM.

For data set [9], the target named is NACHT, LRR and PYD domains-containing protein 3 (Homo sapiens) (UniProt Q96P20). As to the kind of experiment: Inhibition of NLRP3 inflammasome activation in PMA-differentiated and LPS/ATP-stimulated human THP-1 cells assessed as inhibition of IL-6 secretion at 20 uM incubated for 1 hrs followed by LPS stimulation for 12 hrs and ATP addition for 0.5 hrs by ELISA. In kind it is cell-based. Conditions: time 13.5 hrs.

For another data set, the system named is RAW264.7. As to the kind of experiment: Antiinflammatory activity in mouse RAW264.7 assessed as inhibition of LPS-induced NO production incubated for 1 hrs followed by LPS stimulation for 18 hrs by Griess reagent based assay. The format is functional, cell-based.
Data set [10] has as its system THP-1. In words: Antiinflammatory activity against PMA-differentiated and LPS/NIG stimulated human THP-1 cells assessed as increase in cell viability at 5 to 20 uM incubated for 1 hrs followed by LPS stimulation for 12 hrs and NIG addition for 2 hrs by LDH assay. In kind it is functional, cell-based. To be noted: dose 5-20 µM, time 15.0 hrs.
Data set [11] concerns the target NACHT, LRR and PYD domains-containing protein 3 (Homo sapiens) (UniProt Q96P20). In words: Inhibition of NLRP3 inflammasome activation in PMA-differentiated and LPS/MSU-stimulated human THP-1 cells assessed as decrease in IL-1beta expression at 20 uM incubated for 1 hrs followed by LPS stimulation for 12 hrs and MSU addition for 6 hrs by western blot analysis. The format is cell-based. Conditions: time 19.0 hrs.

In data set [12] the test system is THP-1. As to the kind of experiment: Antiinflammatory activity against PMA-differentiated human THP-1 cells assessed as reduction in IL-1beta level at 20 uM incubated for 1 hrs followed by LPS stimulation for 12 hrs and ATP addition for 0.5 hrs by ELISA. In kind it is functional, cell-based. Conditions: time 13.5 hrs.

Turning to `CC1(C)C(=O)C=C[C@]2(C)[C@H]3CC[C@@]4(C)[C@H](c5ccoc5)OC(=O)[C@H]5O[C@]54[C@]3(C)[C@H](O)C[C@@H]12` [DEACETYLGEDUNIN], the result in the data set on THP-1 [1], in the data set with J774.A1, with THP-1 [10] and with THP-1 [12] was Active. The inhibition entry in data set [2], in [3], in data set [4], in data set [5], in [6] and in data set [7] was “Active” throughout. Also, the inhibition entry in [8], in [9] and in data set [11] was “Active” throughout. For the same molecule, the Activity entry in the data set on J774.1 is on record as “Non-Toxic”. Also, the IC50 in the data set on RAW264.7 is 9.19 µM.
